Values joined by “and” are separate entries in the source; they are usually repeats but may differ in a detail not shown here. Equal values may be shown once.
Key:
Type in all cases: cell-based, human
[1] = tested on: AML blasts; test: Nitroblue tetrazolium (NBT) reduction test
Procedure: (§1) AML blast treatment with HA. Cell suspensions containing more than 95% AML blasts were deposited in triplicate at a rate of 2.105 cells per ml of RPMI 1640/10% FCS in tissue culture plates (Costar Corp., Cambridge, Mass.) with 96 wells each containing 150 μl of medium, and placed in incubation for 5 days in the presence of 20 μg/ml of hyaluronic acid (hHA, HA-6 or HA-12). HA was added at the specified concentrations and chondroitin sulphate was added to the negative controls. The plates were placed in an incubator at 37° C. in a humid atmosphere for […], and the cells underwent the differentiation studies as described below.
Nitroblue tetrazolium (NBT) reduction test: The ability to reduce NBT was measured using conventional techniques. Briefly, 2.10^5 cells were suspended in 900 μl of RPMI 1640 medium and were incubated in the presence of 0.2 μg/ml of 12-O-tetradecanoylephorbol-13-acetate (TPA, Sigma) and 0.5 mg/ml of NBT (Sigma) for 30 minutes at 37° C. The reaction was stopped at 4° C., the cells were cytocentrifuged and subjected to May-Grünwald-Giemsa staining agent. The percentage of cells containing black NBT reduction deposits was determined in duplicate, under an optical microscope, after examining 300 cells.

[2] = tested on: AML blasts; test: Tyrosine phosphorylation inhibition with genistein, effect on HA-induced differentiation; details: genistein 1 hour, then HA five days
Procedure: (§2) Tyrosine phosphorylation inhibition with genistein: 2.10^5 AML blasts, suspended in 200 μl of RPMI 1640/10% FCS medium, were incubated in the presence of 50 nM/l of genistein (Calbiochem-Novabiochem, San Diego, Calif.) for 1 hour at 37° C., and then in the presence of HA for either one hour (for studies on cytokine transcript expression), or five days (for studies on differentiation).

[3] = tested on: AML blasts; test: Trypan blue exclusion test; details: genistein then HA
Procedure: as §2

[4] = tested on: AML blasts; test: AML blast differentiation induced by HA or anti-CD44 mAbs (NBT, CD14/CD15, cytology criteria)
Excerpt: Leukaemic peripheral blood or bone marrow samples were taken at the time of diagnosis, after informed consent, from 36 patients suffering from acute myeloid leukaemia (AML). The diagnosis of the disease and its classification comply with French-American-British (FAB) classification criteria.
Fresh or frozen AML cells were enriched by centrifugation according to the density gradient in the presence of Ficoll, and washed in RPMI 1640 medium containing 10% foetal calf serum (FCS). The frozen cells were thawed at ambient temperature in RPMI 1640 medium containing 50% FCS, and then washed twice in RPMI medium supplemented with 10% FCS. B and T lymphocytes were eliminated from all the samples, along with monocytes for the AML1/2 and AML3 samples. This elimination was performed by specific immunoadsorption of Dynabeads beads (Dynal, Oslo, Norway) coated with monoclonal antibodies directed against the specific surface antigens CD2 and CD19 (lymphocytes) and CD14 (monocytes), according to the manufacturer's instructions. In this way, cell suspensions containing more than 95% AML blasts were obtained.
as §1
Differentiation was detected by analysing 3 criteria: 1) the ability to produce an oxidation-reduction reaction in response to a phorbol ester: this oxidation-reduction reaction is detected with nitroblue tetrazolium NBT reduction, 2) the expression of specific antibodies for differentiation (specific CD14 for monocytes, and specific CD15 for granulocytes), and 3) specific cytological modifications. All these criteria are specific to normal differentiate granulocyte or monocyte cells.

[5] = tested on: AML blasts; test: Flow cytometry analysis of CD14 and CD15 expression
Procedure: as §1
Flow cytometry analysis of CD14 and CD15 expression: the AML blasts were suspended at a rate of 10^5 blasts/ml of RPMI 1640 medium containing 0.02% bovine serum albumin and 0.02% […] NaN3, and were then incubated at 4° C. for 30 minutes in the presence of mAbs conjugated with fluorescein isothiocyanate (FITC), and directed against CD14 (5 μg/ml IgG2b, Coulter Immunology, Hialeah, Fla.) or directed against CD15 (1 μg/ml IgM, Becton Dickinson, San José, Calif.). The mAbs were used at saturation concentrations. The murine IgM and IgG2b conjugated with FITC were obtained from Coulter-Immunotech (Coulter-Immunotech Inc., Westbrook, Me.), and were used at a 1:50 dilution. The bonding of the mAbs directed against CD14 and CD15 was quantified by measuring, by flow cytometry, the cell fluorescence in relation to that of cells labelled with the IgG-FITC. The measurement was made using a FACSvantage (Becton Dickinson) equipped with an INNOVA70-4 argon ion laser (Coherent Radiation, Palo Alto, Calif.) set at 488 nm and operating at 500 mW. The flow cytometer was calibrated using fluorescent beads (Becton Dickinson). This measurement was made on 3000 cells.

[6] = tested on: AML blasts; test: Cytological study (May-Grünwald-Giemsa staining)
Procedure: as §1
The cell smears, prepared in triplicate, were stained by May-Grünwald-Giemsa staining and their cytology was examined under an optical microscope.

[7] = tested on: intracellular tyrosine phosphorylations in AML blasts; test: Protein phosphorylation analysis on tyrosine residue; details: AML5 blasts, 6D12-FITC flow cytometry
Procedure: Protein phosphorylation induction on tyrosine residue: HA-12 (50 μg/ml) was added at the time t=0 to 2.10^5 AML blasts suspended, at ambient temperature, in 200 μl of RPMI 1640 medium containing 10% FCS. At t=1 min, 5 min, 15 min and 30 min, 200 μl of Permeafix Ortho (Coulter-Immunotech Inc., Westbrook, Me.) was added to stop the phosphorylations and permeabilise the cells. After 40 minutes of incubation at ambient temperature, and three washes in PBS, the phosphorylated proteins on the tyrosine residue were labelled specifically with 6D12 mAb (used at 2 μg/ml conjugated with FITC, and the labelling intensity was measured by flow cytometry with reference to the isotype control (cells labelled with IgG1 conjugated with FITC), as described above.

[8] = tested on: M-CSF transcripts; test: RT-PCR cytokine transcript expression study; details: out of 3 cases, 1 hour after HA treatment
Procedure: RT-PCR cytokine transcript expression study: the total RNA was extracted from 5.10^5 cells using Trizol reagent (Life Technologies, Cergy Pontoise, France), followed by a phenolchloroform extraction and isopropanol precipitation. One microgram of total RNA heated at 70° C. for 10 minutes was used as a matrix for the synthesis of the first strand of complementary DNA (cDNA), by adding reverse transcriptase and random hexamers (Life Technologies). The transcript of the glyceraldehyde phosphodehydrogenase (GADPH) housekeeping gene was used as an internal marker for the PCR reaction (0.24 kb amplification product). Equilibrated quantities of cDNA were used for the PCR amplification of the cytokine transcripts, the primers used for PCR were as follows: […]
The PCR protocol consisted of 30 cycles of 94° C. for 1 minute, 58° C. for 1 minute and 72° C. for 1 minutes, using a thermocycler (Perkin Elmercetus, Norwalk, Conn.) For each experiment, two negative controls were subject to all the steps.

[9] = Total number, 35 cases analysed

For `CC1=C(/C=C/C(C)=C/C=C/C(C)=C/C(=O)O)C(C)(C)CCC1` [RA, all-transretinoic acid, reference compound], the “% NBT^+ cells (extreme values)” value ([1]; M3 (AML3) blasts) was “(RA: 47-90) %”.

In the case of `O=c1c(-c2ccc(O)cc2)coc2cc(O)cc(O)c12` [genistein], the “effect on AML3 and AML5 differentiation induced by CD44 (HA treatment)” value [2] is reported as “inhibits this differentiation” and the cell viability [3] is reported as “greater than 95%”.

In the case of hyaluronic acid [HA], the “Number of cases of differentiation” value ([4]; AML1/2, 7 cases analysed, 20 μg/ml HA, 5 days) is reported as 5/7 and 5, the “Number of cases of differentiation” value ([4]; AML3, 16 cases analysed, 20 μg/ml HA, 5 days) is reported as 12/16 and 12 and the “Number of cases of differentiation” value ([4]; AML4, 4 cases analysed, 20 μg/ml HA, 5 days) is reported as 3/4 and 3. For the same molecule, the “Number of cases of differentiation” value ([4]; AML5, 8 cases analysed, 20 μg/ml HA, 5 days) was 6/8 and 6, the “Number of cases of differentiation” value [4, 9] was 26 and the “Number of cases of differentiation, as % of cases analysed” value [4, 9] was 74%. The “cases of AML in which it was not possible to induce differentiation” value ([4]; all AML patients (36)) was 9/36, the “% NBT^+ cells, median value” ([1]; AML1/2, 5 out of 7 cases) was 22% and the “% NBT^+ cells in the cases as high as with all-transretinoic acid” value ([1]; AML3, 6 of the 12 responding cases) was “over 50%”. The “% NBT^+ cells, median value” ([1]; AML3, 12 out of 16 cases) was 42%, the “% NBT^+ cells, median value” ([1]; AML4) was 55% and the “median % NBT^+ cells relative to controls” value ([1]; AML4) was 3 times. The “% NBT^+ cells, median value” ([1]; AML5, 6 out of 8 cases) was 52%, the “% NBT^+ cells (extreme values)” value ([1]; M3 (AML3) blasts) was 20%-80% and the “% NBT^+ cells (extreme values)” value ([1]; M4 (AML4) blasts) was 43%-90%. For the same molecule, the “% NBT^+ cells (extreme values)” value ([1]; M5 (AML5) blasts) was 32%-70%, the “factor by which MFI values (CD14, CD15) multiplied” value ([5]; AML1/2) was “around 2” and the “cases in which expression of both CD14 and CD15 increased” value ([5]; AML1/2, of the 8 cases) was 6. For the same molecule, the “increase of CD15 MFI values” ([5]; AML3) was “approximately 3 fold”, the “cases in which maturation was as marked as after all-transretinoic acid” value ([5]; AML3, of the 12 cases) was 8 and the “cases in which maturation was as marked as after all-transretinoic acid, %” value ([5]; AML3, of the 12 cases) was 66%. The “number of samples in which the % of CD15^+ cells increased” value ([5]; AML3, out of 16 samples) was 12, the “factor by which % of CD14 and CD15 positive cells multiplied” value ([5]; AML4) was 2 and the “factor by which MFI values (CD14, CD15) multiplied” value ([5]; AML4) was 3. For the same molecule, the “dose up to which differentiation intensity (CD14 MFI) is related to the dose” value ([5]; AML5 blasts, HA-12 (FIG. 3A)) was “up to 15 μg/ml”, the “% CD15+ cells (extreme values)” value ([5]; M1/M2 (AML1/2) blasts) was 22-100% and the “% CD15+ cells (extreme values)” value ([5]; M3 (AML3) blasts) was 42-90%. The “% CD15^− cells median values” ([5]; M3 (AML3) blasts) was 78%, the “CD14 MFI value” ([5]; one AML5 sample with CD14 in negative controls (102 in the negative controls)) was “up to 340 arbitrary units” and the “cytological change after treatment” value ([6]; AML1/2 blasts) was “No cytological change was observed”. The “cytological characteristics after treatment” value ([6]; AML3 blasts, 5 days) was “a segmented nucleus, a low nucleo-cytoplasmic ratio, rare nucleoles, some azurophilic granulations”, the “cytological characteristics after treatment” value ([6]; AML5 blasts) was “a decrease in the nucleus/cytoplasm ratio, a decrease in the number of nucleoles, chromatin condensation, and irregular cytoplasmic contours” and the “induction of intracellular tyrosine phosphorylations” value [7] was “already induced after one minute of treatment”. For the same molecule, the “cases with M-CSF transcripts detected” value ([8]; M1/M2 AML) was 1 and the “cases with M-CSF transcript detected” value ([8]; M5 AML) was 1.

— US20040204384A1, “Methods for regulating hematopoietic cell differentiation with polymers containing disaccharide units” (Institut National De La Sante Et De La Recherche Medial …, priority 1999, published 2004)
